According to ChEMBL document CHEMBL4725269, “Exploring the newer oxadiazoles as real inhibitors of human SIRT2 in hepatocellular cancer cells” (Bioorg Med Chem Lett, 2020):

Tests used:
L02 = test: Cytotoxicity against human L02 cells assessed as reduction in cell proliferation measured after 72 hrs by MTT assay; format: cell-based; conditions: L02, 72 h
[1] = Antiproliferative activity against human HCCLM3 cells assessed as reduction in cell proliferation measured after 72 hrs by MTT assay; format: functional, cell-based; conditions: HCCLM3, 72 h
HepG2 [2] = test: Antiproliferative activity against human HepG2 cells assessed as reduction in cell proliferation measured after 72 hrs by MTT assay; format: functional, cell-based; conditions: HepG2, 72 h
HepG2 [3] = test: Cell cycle arrest in human HepG2 cells assessed as accumulation at subG1 phase at 30 uM measured after 72 hrs by FACS based flow cytometry analysis (reference value: 4 %); format: functional
HepG2 [4] = test: Reduction in SIRT2 expression in human HepG2 cells at 15 uM by Western blot analysis; format: functional, cell-based; conditions: time hrs 24-72, TDE = time-dependent effect
HepG2 [5] = test: Cell cycle arrest in human HepG2 cells assessed as accumulation at subG1 phase at 5 uM measured after 72 hrs by FACS based flow cytometry analysis (reference value: 4 %); format: functional
HepG2 [6] = test: Cell cycle arrest in human HepG2 cells assessed as accumulation at subG1 phase at 15 uM measured after 72 hrs by FACS based flow cytometry analysis (reference value: 3 %); format: functional
HepG2 [7] = test: Cell cycle arrest in human HepG2 cells assessed as accumulation at subG1 phase at 15 uM measured after 24 hrs by FACS based flow cytometry analysis (reference value: 3 %); format: functional
HepG2 [8] = test: Cell cycle arrest in human HepG2 cells assessed as accumulation at subG1 phase at 15 uM measured after 48 hrs by FACS based flow cytometry analysis (reference value: 3 %); format: functional
HepG2 [9] = test: Reduction in SIRT2 expression in human HepG2 cells measured after 72 hrs by Western blot analysis; format: functional, cell-based; conditions: dose microM 5-30, time 72.0 hrs
HepG2 [10] = test: Cell cycle arrest in human HepG2 cells assessed as accumulation at subG1 phase at 15 uM measured after 72 hrs by FACS based flow cytometry analysis (reference value: 4 %); format: functional

Row | Structure (SMILES) | IC50 (HepG2 [2]) [µM] | IC50 (L02) [µM] | IC50 [1] [µM] | also measured
1 | Cn1nc(-c2nnc(-c3ccccc3)o2)c2ccccc21 | 37.5 | 84.6 | 100 | 
2 | Cn1nc(-c2nnc(-c3ccc(O)cc3)o2)c2ccccc21 | 86.4 | > 100 | > 100 | 
3 | Cc1ccc(-c2nnc(-c3nn(C)c4ccccc34)o2)cc1 | 38.7 | > 100 | > 100 | 
4 | Cn1nc(-c2nnc(-c3ccc(Br)cc3)o2)c2ccccc21 | 40 | > 100 | > 100 | 
5 | Cn1nc(-c2nnc(-c3ccc(Cl)cc3)o2)c2ccccc21 | 42 | > 100 | > 100 | 

Continued by falling IC50 (HepG2 [2]), values first:

Row | IC50 (HepG2 [2]) [µM] | Structure (SMILES) | IC50 (L02) [µM] | IC50 [1] [µM] | also measured
6 | 67.4 | Cc1ccc(C(=O)Nc2ccc(S(=O)(=O)O)c3cc(S(=O)(=O)O)cc(S(=O)(=O)O)c23)cc1NC(=O)c1cccc(NC(=O)Nc2cccc(C(=O)Nc3cc(C(=O)Nc4ccc(S(=O)(=O)O)c5cc(S(=O)(=O)O)cc(S(=O)(=O)O)c45)ccc3C)c2)c1 [SURAMIN] |  |  | 
7 | 60 | Cc1cccc(-c2nnc(-c3nn(C)c4ccccc34)o2)c1 | > 100 | > 100 | 
8 | 45 | Cn1nc(-c2nnc(-c3ccccc3Cl)o2)c2ccccc21 | > 100 | > 100 | 
9 | 24.5 | Cn1nc(-c2nnc(-c3cccc(Br)c3)o2)c2ccccc21 | > 100 | > 100 | 
10 | 22.3 | Cn1nc(-c2nnc(-c3ccccc3Br)o2)c2ccccc21 | 89 | > 100 | 
11 | 21.4 | Cn1nc(-c2nnc(-c3cccc(Cl)c3)o2)c2ccccc21 | > 100 | > 100 | 
12 | 19.5 | COc1ccc(-c2nnc(-c3nn(C)c4ccccc34)o2)cc1 | > 100 | > 100 | Activity (HepG2 [3]): 55%; inhibition (HepG2 [4]): Tde; Activity (HepG2 [5]): 10%; Activity (HepG2 [6]): 55%; Activity (HepG2 [7]): 10%; Activity (HepG2 [8]): 45%; inhibition (HepG2 [9]): Dose-dependent effect; Activity (HepG2 [10]): 41%
13 | 3.9 | CC(=O)O[C@H]1C(=O)[C@@]2(C)[C@H]([C@H](OC(=O)c3ccccc3)[C@]3(O)C[C@H](OC(=O)[C@H](O)[C@@H](NC(=O)c4ccccc4)c4ccccc4)C(C)=C1C3(C)C)[C@]1(OC(C)=O)CO[C@@H]1C[C@@H]2O [PACLITAXEL] |  |  | 
